# From patent US20070015813A1, “Treatment of protein folding disorders” (QUEEN'S UNIVERSITY AT KINGSTON, priority 2005, published 2007)
# Assays:
# [1] = target: T1, Aβ1-42 (Homo sapiens, UniProt P05067); test: Kinetic Thioflavin T (ThT) aggregation assay of Aβ1-42; assay type: biochemical; conditions: 20 μM Aβ1-42, kinetic ThT assay
# T1 construct: Aβ^1-42 (AnaSpec, lot 45685); purchased AnaSpec
# Description: Aβ^1-42 (1.0 mg) was either pretreated with HFIP in the same manner as Aβ^1-40 or this step was omitted. After removing HFIP, when appropriate, Aβ^1-42 was dissolved in 1% NH3 (aq.) (200 μL) and sonicated for 1 min. The solution was diluted with Tris-HCl (5.7 mL, 20 mM, pH 7.4), the pH adjusted to 7.4 with concentrated HCl (aq.) and the solution filtered using a syringe filter (0.2 μm). Prior to use in the ThT aggregation assay, the solution was diluted with an equal volume of 8 μM Thioflavin T (ThT) in Tris-HCl (20 mM, pH 7.4, 300 mM NaCl).
# (§1) Aliquots (200 μL) of Aβ^1-40, Aβ^1-42, tau441 or α-synuclein with ThT or ThS were added to wells of a black polystyrene 96-well plate, followed by 2 μL of a compound in DMSO (various concentrations), or DMSO alone (controls). For α-synuclein, sodium dodecyl sulfate solution (2.0 μL, 30 mM) was also added to each well to induce aggregation. Incubations were performed in triplicate and were taken to contain 20 μM Aβ^1-40 or Aβ^1-42, 6 μM tau441 or 4 μM α-synuclein. Plates were covered with clear polystyrene lids and incubated at 37° C. in a GENios microplate reader obtained from Tecan Group Limited, Mannedorf, Zurich. For Aβ^1-40, tau441 and α-synuclein, fluorescence readings (λex=450 nm, λem=480 nm) were taken every 15 min., after first shaking at high intensity for 15 sec. and allowing to settle for 10 sec. before each reading. For Aβ^1-42, readings were taken every 5 min.
# (§2) The absorbance of each compound was measured under the conditions used during testing, though on ten times the scale (2 mL), to ensure no significant quenching interfered with the assay. This step was also used to identify whether compounds were completely soluble under testing conditions.
# FIG. 7 depicts inhibition of Aβ^1-42 aggregation by various synthesized bi-aromatic compounds and positive controls morin (Ono K, Yoshiike Y, Takashima A, Hasegawa K, Naiki H, Yamada M. 2003. J Neurochem 87:172-81) and RS-0406 (Walsh D M, Townsend M, Podlisny M B, Shankar G M, Fadeeva J V, Agnaf O E, Hartley D M, Selkoe D J. 2005. J Neurosci 25:2455-62) in the kinetic ThT assay. Same conditions as for Aβ^1-40, FIG. 1. Compound concentrations were 100 μM in (A), 20 μM in (B), except for RS-0406, which was tested at 100 μM, and 20 μM in (C).
# [2] = target: T2, Aβ1-40 (Homo sapiens, UniProt P05067); test: Kinetic Thioflavin T (ThT) aggregation assay of Aβ1-40; assay type: biochemical; conditions: for inhibition of Aβ1-40 aggregation, as measured by Thioflavin T (ThT) fluorescence: 20 μM Aβ1-40, 4 μM ThT, pH 7.4, 37° C., kinetic ThT assay
# T2 construct: Aβ^1-40 (AnaSpec, San Jose, Calif., lots 14212, 34862 and 34889); purchased AnaSpec, San Jose, Calif
# T2 sequence (P05067 672-711 limits assumed): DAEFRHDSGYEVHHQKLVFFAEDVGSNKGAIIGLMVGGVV
# Description: Aβ^1-40 (1.0 mg) was pre-treated in a 1.5 mL microfuge tube with 1,1,1,3,3,3-hexafluoroisopropanol (HFIP, 1 mL) and sonicated for 20 min. to disassemble any pre-formed Aβ aggregates. The HFIP was removed with a stream of argon and the Aβ dissolved in Tris base (5.8 mL, 20 mM, pH 10.5). The pH was adjusted to 7.4 with concentrated HCl and the solution filtered using a syringe filter (0.2 μm). This solution was used for circular dichroism studies or diluted with an equal volume of 8 μM Thioflavin T (ThT) in Tris-HCl (20 mM, pH 7.4, 300 mM NaCl) for the ThT aggregation assay.
# as §1, §2
# FIG. 1 depicts the inhibition of Aβ^1-40 aggregation, as measured by Thioflavin T (ThT) fluorescence, by directly-linked 3,3′-bis-indolyl compounds 0c-i (A), other bis-indoles (B), aza-indole-containing compounds (C), indole-phenols (D), indole-5-carboxylic acid-containing bi-aromatics (E), and naphthol-containing bi-aromatics (F). Aggregation conditions: 20 μM Aβ^1-40 incubated in covered black 96-well polystyrene microplates with 4 μM ThT, pH 7.4, Tris-HCl (20 mM), 150 mM NaCl, 1% DMSO. Compound concentrations are 200 μM (A,B, except where otherwise noted), 100 μM (E), 20 μM (F), or as indicated (C,D). Plates heated at 37° C. in Tecan Genios microplate reader. All incubations performed in triplicate. Prior to experiment, Aβ^1-40 pretreated with 1,1,1,3,3,3-hexafluoroisopropanol (HFIP). Fluorescence readings: fluorescence measured every 15 min. (λex=450 nm, λem=480 nm) after shaking for 15 sec. and pausing 10 sec. before taking measurement. Values are the mean of three replicates. Error bars, omitted for clarity in (B), represent standard deviation of the mean.
# [3] = Colour on exposure to light and air (stability to oxidation); assay type: physicochemical; conditions: solid compounds, days or weeks
# Description: The highly branched bridging groups of 1h,i,j provide additional molecular diversity to help identify favourable characteristics for compound activity against Aβ.
# [4] = target: T3, tau441 (Homo sapiens, UniProt P10636); test: Kinetic Thioflavin S (ThS) assay of tau441 aggregation; assay type: biochemical
# T3 construct: (expression construct); host or cells: E. coli BL21 D3
# T3 sequence (P10636 1-441 isoform P10636-8): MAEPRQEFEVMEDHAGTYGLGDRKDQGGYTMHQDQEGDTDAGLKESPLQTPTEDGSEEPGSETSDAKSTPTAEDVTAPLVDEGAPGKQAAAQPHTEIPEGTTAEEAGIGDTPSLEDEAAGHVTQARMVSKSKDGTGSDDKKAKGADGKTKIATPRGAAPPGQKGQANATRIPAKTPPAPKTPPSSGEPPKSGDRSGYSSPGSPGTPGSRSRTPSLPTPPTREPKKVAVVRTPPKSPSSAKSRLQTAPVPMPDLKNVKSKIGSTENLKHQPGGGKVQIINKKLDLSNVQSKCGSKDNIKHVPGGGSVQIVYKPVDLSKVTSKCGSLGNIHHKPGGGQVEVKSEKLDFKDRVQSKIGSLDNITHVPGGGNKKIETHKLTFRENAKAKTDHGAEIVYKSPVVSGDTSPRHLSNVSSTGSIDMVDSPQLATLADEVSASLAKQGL
# Description: The tau441 expression construct [L Buee et al. (2000). Brain Research Reviews 33:95-130] was purchased (Bioclon Inc., San Diego, Calif.) already transformed in BL21 D3 bacterial cells (Novagen/EMD Biosciences) for protein expression. Cells were grown and induced with IPTG according to Novagen's protocol. To lyse cells, Cellytic B reagent (Sigma) was used with lysozyme protease inhibitors (Sigma) and benzonase (Novagen/EMD Biosciences), according to manufacturer's methods. Lysate was cleared by centrifugation for 20 min at 10,000 RPM (SS34 rotor, Sorvall RC2b centrifuge) at 4° C. Protein was purified from the soluble fraction. Once purified, tau441 was stored at −78° C. as frozen aliquots (8.3 mg/mL, 60 μL) in Tris-HCl (50 mM, pH 7.4) until used.
# Frozen aliquots of tau441 (8.3 mg/mL, 60 μL) in Tris-HCl (50 mM, pH 7.4) were allowed to thaw at room temperature (RT) before being diluted with Tris-HCl (2.64 mL, 50 mM, pH 7.4) containing dithiothreitol (DTT, 1 mM) to prevent disulfide bonds and NaN3 (50 μM) to prevent bacterial growth. After allowing to stand at RT for 1 h, Thioflavin S (ThS) was added (2.5 μL, 10.8 mM), followed by the aggregation inducer heparin (20 μL, 1.08 g/mL).
# as §1
# Aggregation conditions: tau441 at a concentration of either 10 μM (A) or 4 μM (B,C,D,E) was incubated in covered black 96-well polystyrene microplates alone or with 100 (A) or 50 μM compound (B,C,D,E), 5 μM ThS, pH 7.4, Tris-HCl (50 mM) containing NaN3 (50 μM), and either 1% MeOH (A) or 1% DMSO (B,C,D,E). Plates were heated at 37° C. in a Tecan GENios microplate reader. All incubations performed in triplicate, except for compound 0c in (A), which had n=1. Fluorescence readings: fluorescence measured every 15 min. (λex=450 nm, λem=480 nm) after shaking for 15 sec. and pausing 10 sec. before taking measurement. Values are the mean of three replicates. Error bars, sometimes not visible due to small size, represent standard deviation of the mean.
# Aggregation conditions: tau441 at a concentration of 4 μM was incubated in covered black 96-well polystyrene microplates alone or with 50 μM (A,B,C) or 1 mM compound (D), 5 μM ThS, pH 7.4, Tris-HCl (50 mM) containing NaN3 (50 μM), and 1% DMSO. Plates were heated at 37° C. in a Tecan GENios microplate reader. All incubations performed in triplicate. Fluorescence readings: fluorescence measured every 15 min. (λex=450 nm, λem=480 nm) after shaking for 15 sec. and pausing 10 sec. before taking measurement. Values are the mean of three replicates. Error bars, sometimes not visible due to small size, represent standard deviation of the mean.
# T1 sequence (P05067 672-713 limits assumed): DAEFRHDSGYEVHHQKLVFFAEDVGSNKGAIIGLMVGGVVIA
Structure (SMILES),melting point,"inhibition of Aβ1-42 aggregation, as measured by ThT fluorescence [1]",also measured
"COc1ccc2[nH]cc(-c3c[nH]c4ccc(OC)cc34)c2c1 [0b, 5-methoxy-3-(5-methoxy-indol-3-yl)-indole]",193 to 196 °C,,
"O=C(O)c1ccc2c(-c3c[nH]c4ccccc34)c[nH]c2c1 [0k, 3-(Indol-3-yl)-indole-6-carboxylic Acid]",,inhibiting aggregation,
"Oc1ccc2[nH]cc(C3CNc4ncccc43)c2c1 (stereo not shown) [0n, 3-(2,3-dihydro-7-azaindol-3-yl)-indol-5-ol]",,inhibit aggregation,"inhibition of Aβ1-40 aggregation, as measured by Thioflavin T (ThT) fluorescence [2]: inhibit aggregation"
"B.O=C(O)c1ccc2[nH]cc(-c3c[nH]c4ncccc34)c2c1 [0o, 3-(7-azaindol-3-yl)-indole-5-carboxylic acid.BH3]",,inhibit aggregation,"inhibition of Aβ1-40 aggregation, as measured by Thioflavin T (ThT) fluorescence [2]: inhibit aggregation"
"Oc1ccc2cc(-c3cc4ccccc4o3)ccc2c1 [compound 64, 6-Benzofuran-2-yl-naphthalen-2-ol]",,inhibiting aggregation,
"O=C(O)c1sc2ccccc2c1-c1cc2ccccc2o1 [compound 83, 3-(Benzofuran-2-yl)-benzothiophene-2-carboxylic Acid]",,,"effect on tau fibrillization (ThS fluorescence) ([4]; tau441 4 or 10 μM, 50 to 100 μM compound, 5 μM ThS, heparin inducer, pH 7.4, 37° C.): Other than 83 in FIG. 10E, all the bi-aromatics tested significantly modulated"
"O=C(O)c1ccc2[nH]c(Cc3ccc(O)cc3)c(Cc3ccc(O)cc3)c2c1 [compound 102, 2,3-bis(4-hydroxybenzyl)-indole-5-carboxylic Acid]",,,"activity against (inhibition of) Aβ1-40 aggregation at 200 μM compound ([2]; 200 μM compound, 20 μM Aβ1-40, kinetic ThT assay (FIG. 1A, 1D)): active"
O=C(O)c1cccnc1 [nicotinic acid],,,"effect on tau fibrillization (ThS fluorescence) at 1 mM ([4]; tau441 4 μM, 1 mM compound (FIG. 11D)): no effect"

# Further lines, with some results ahead:
melting point,"inhibition of Aβ1-42 aggregation, as measured by ThT fluorescence [1]",Structure (SMILES),also measured
82 to 84 °C,,"c1ccc2c(c1)ccn2Cc1c[nH]c2ccccc12 [1b, 3-((indol-1-yl)methyl)-indole]",
48 to 50 °C,,"COc1ccc2c(ccn2Cc2c[nH]c3ccc(OC)cc23)c1 [1d, 5-methoxy-3-((5-methoxy-indol-1-yl)methyl)-indole]",
133 to 136 °C,,"CC(C)(c1c[nH]c2ccc(O)cc12)c1c[nH]c2ccc(O)cc12 [1h, 2,2-Bis-(5-hydroxyindol-3-yl)propane]",colour when exposed to light and air [3]: remained a light colour
132 °C (dec.),,"CC1(C)CC(C)(c2c[nH]c3ccc(O)cc23)c2[nH]c3ccc(O)cc3c21 (stereo not shown) [1i, 1,2,3,4-Tetrahydro-3-(5-hydroxyindol-3-yl)-1,1,3-trimethylcyclopenta[b]indol-7-ol]",colour when exposed to light and air [3]: remained a light colour
140 °C (dec.),,"CC1(C)CC2(CC(C)(C)c3c2[nH]c2ccc(O)cc32)c2[nH]c3ccc(O)cc3c21 [1j, 3,3,3′,3′-Bis(1,2,3,4-tetrahydro-1,1-dimethylcyclopenta[b]indol-7-ol)]",colour when exposed to light and air [3]: remained a light colour
205 °C (dec.),,"O=C(O)c1ccc2[nH]cc(CCc3c[nH]c4ccc(Br)cc34)c2c1 [2b, 3-(2-(5-bromo-indol-3-yl)ethyl)-indole-5-carboxylic Acid]",
,inhibit aggregation,"B.COc1ccc2[nH]cc(-c3c[nH]c4ncccc34)c2c1 [10n, 3-(5-methoxyindol-3-yl)-7-azaindole.BH3]","inhibition of Aβ1-40 aggregation, as measured by Thioflavin T (ThT) fluorescence [2]: inhibit aggregation"
,inhibition,Oc1cccc(Nc2ccc(Nc3cccc(O)c3)nn2)c1 [RS-0406],
